According to PMC6430017, “Structural and chemical insights into the covalent-allosteric inhibition of the protein kinase Akt” (Chemical Science, 2019):

Molecular target: PRKCB1 (PKC beta I) (Homo sapiens, UniProt P05771)
Test: SelectScreen Z'LYTE kinase profiling
Assay type: biochemical
Conditions: ATP at apparent KM
Experimental: (§1) protein kinases at a compound concentration of 1 µM. Measurements were performed in duplicates
(§2) and at the particular apparent ATP KM of each individual kinase employing the activity based Z’LYTE®
(§3) kinase assay of the SelectScreen® Kinase Profiling Services (ThermoFisher Scientific).
(§4) kinases at a compound concentration of 1 µM. Measurements were performed in duplicates and at
(§5) the particular apparent ATP KM of each individual kinase employing the activity based Z’LYTE® kinase
(§6) assay of the SelectScreen® Kinase Profiling Services (ThermoFisher Scientific).

In order of falling inhibition at 1 µM:
1. C=CC(=O)Nc1ccc2c(c1)n(C1CCN(Cc3ccc(-c4nc5cc[nH]c(=O)c5cc4-c4ccccc4)cc3)CC1)c(=O)n2C [24b]  7%
2. C=CC(=O)Nc1cccc(C(=O)NC2CCN(Cc3ccc(-c4nc5cc[nH]c(=O)c5cc4-c4ccccc4)cc3)CC2)c1 [30b]  6%
3. C=CC(=O)Nc1cc(NC(=O)NC2CCN(Cc3ccc(-c4nc5cc[nH]c(=O)c5cc4-c4ccccc4)cc3)CC2)ccc1Cl [compound 27]  6%

Molecular target: EGFR (ErbB1) (Homo sapiens, UniProt P00533)
Test: SelectScreen Z'LYTE kinase profiling
Assay type: biochemical
Conditions: ATP at apparent KM
Experimental: as §1, §2, §3, §4, §5, §6

Sequence of EGFR (ErbB1) (P00533 25-1210): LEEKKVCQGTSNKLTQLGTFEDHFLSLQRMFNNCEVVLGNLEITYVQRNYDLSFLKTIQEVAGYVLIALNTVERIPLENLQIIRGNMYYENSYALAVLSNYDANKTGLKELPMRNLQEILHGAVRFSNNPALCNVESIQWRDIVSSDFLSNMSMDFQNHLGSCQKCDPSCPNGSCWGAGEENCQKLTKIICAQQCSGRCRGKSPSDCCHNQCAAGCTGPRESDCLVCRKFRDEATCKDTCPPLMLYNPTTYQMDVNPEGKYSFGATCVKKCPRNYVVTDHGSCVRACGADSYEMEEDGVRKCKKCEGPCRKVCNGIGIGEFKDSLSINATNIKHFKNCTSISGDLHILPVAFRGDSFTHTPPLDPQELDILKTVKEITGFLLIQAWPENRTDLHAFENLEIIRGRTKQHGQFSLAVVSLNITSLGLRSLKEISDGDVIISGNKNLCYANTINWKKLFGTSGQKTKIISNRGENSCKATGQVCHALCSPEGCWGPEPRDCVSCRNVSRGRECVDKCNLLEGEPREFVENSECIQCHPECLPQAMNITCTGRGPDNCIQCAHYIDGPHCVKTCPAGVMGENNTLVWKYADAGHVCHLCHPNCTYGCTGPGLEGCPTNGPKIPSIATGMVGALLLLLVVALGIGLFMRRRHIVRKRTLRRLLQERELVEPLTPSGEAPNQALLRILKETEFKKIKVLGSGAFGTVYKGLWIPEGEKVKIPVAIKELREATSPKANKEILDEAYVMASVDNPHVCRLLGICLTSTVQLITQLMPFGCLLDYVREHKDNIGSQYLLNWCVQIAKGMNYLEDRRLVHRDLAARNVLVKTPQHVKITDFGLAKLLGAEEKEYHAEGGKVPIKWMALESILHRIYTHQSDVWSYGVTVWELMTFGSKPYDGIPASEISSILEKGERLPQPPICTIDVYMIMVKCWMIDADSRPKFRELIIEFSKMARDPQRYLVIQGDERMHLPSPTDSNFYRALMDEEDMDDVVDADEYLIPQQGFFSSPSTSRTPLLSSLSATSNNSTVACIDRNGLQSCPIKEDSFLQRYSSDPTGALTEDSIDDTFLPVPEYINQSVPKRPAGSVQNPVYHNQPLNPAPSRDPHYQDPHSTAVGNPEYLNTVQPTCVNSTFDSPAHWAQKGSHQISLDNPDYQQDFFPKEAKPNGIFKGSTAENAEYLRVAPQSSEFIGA

In order of falling inhibition at 1 µM:
1. C=CC(=O)Nc1cc(NC(=O)NC2CCN(Cc3ccc(-c4nc5cc[nH]c(=O)c5cc4-c4ccccc4)cc3)CC2)ccc1Cl [compound 27]  2%
2. C=CC(=O)Nc1cccc(C(=O)NC2CCN(Cc3ccc(-c4nc5cc[nH]c(=O)c5cc4-c4ccccc4)cc3)CC2)c1 [30b]  1%
3. C=CC(=O)Nc1ccc2c(c1)n(C1CCN(Cc3ccc(-c4nc5cc[nH]c(=O)c5cc4-c4ccccc4)cc3)CC1)c(=O)n2C [24b]  -8%

Molecular target: CDC42 BPA (MRCKA) (Homo sapiens, UniProt Q5VT25)
Test: SelectScreen Z'LYTE kinase profiling
Assay type: biochemical
Conditions: ATP at apparent KM
Experimental: as §1, §2, §3, §4, §5, §6

Sequence of CDC42 BPA (MRCKA) (Q5VT25 whole entry): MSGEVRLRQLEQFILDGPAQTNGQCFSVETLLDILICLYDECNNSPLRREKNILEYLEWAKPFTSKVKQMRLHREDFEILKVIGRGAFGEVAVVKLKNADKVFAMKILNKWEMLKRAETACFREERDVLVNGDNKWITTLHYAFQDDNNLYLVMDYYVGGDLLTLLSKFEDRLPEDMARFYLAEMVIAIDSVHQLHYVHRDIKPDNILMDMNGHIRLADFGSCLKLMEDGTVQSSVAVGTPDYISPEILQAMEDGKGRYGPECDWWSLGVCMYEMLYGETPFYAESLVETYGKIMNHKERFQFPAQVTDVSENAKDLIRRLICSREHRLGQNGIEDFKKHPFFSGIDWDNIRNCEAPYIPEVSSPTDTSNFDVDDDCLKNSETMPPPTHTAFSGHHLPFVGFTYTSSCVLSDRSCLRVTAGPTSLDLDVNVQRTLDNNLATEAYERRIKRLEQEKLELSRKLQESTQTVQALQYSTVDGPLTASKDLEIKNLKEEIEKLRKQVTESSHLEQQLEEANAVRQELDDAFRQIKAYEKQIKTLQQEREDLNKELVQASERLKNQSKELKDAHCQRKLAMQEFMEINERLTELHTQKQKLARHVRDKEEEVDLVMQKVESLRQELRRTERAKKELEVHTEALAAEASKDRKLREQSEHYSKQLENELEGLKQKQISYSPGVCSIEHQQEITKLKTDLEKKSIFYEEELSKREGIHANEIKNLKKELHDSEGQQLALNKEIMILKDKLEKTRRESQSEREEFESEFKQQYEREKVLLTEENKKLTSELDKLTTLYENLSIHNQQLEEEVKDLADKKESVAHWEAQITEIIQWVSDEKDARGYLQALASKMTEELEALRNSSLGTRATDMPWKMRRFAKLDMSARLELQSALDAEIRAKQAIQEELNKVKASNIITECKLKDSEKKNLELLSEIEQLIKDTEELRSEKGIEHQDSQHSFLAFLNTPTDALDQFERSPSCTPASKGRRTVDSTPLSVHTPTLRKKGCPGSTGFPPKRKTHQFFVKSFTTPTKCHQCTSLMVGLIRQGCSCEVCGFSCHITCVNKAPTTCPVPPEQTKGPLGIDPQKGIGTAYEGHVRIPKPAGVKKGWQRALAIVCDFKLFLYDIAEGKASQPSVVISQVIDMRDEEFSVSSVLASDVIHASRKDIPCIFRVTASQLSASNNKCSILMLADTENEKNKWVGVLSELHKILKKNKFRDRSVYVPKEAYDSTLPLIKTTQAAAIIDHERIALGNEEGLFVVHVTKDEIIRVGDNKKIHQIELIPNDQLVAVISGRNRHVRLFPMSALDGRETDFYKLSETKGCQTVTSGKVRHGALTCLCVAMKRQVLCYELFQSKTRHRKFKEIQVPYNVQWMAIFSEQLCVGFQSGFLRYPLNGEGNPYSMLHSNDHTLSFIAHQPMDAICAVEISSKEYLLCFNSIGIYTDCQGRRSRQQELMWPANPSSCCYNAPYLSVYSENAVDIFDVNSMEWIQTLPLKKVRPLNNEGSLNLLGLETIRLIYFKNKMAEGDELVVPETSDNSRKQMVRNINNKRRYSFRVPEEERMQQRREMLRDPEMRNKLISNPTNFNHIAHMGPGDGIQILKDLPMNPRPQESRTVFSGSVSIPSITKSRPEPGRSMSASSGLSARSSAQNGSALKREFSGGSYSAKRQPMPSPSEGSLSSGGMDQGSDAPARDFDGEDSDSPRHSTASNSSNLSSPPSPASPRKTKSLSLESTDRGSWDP

In order of falling inhibition at 1 µM:
1. C=CC(=O)Nc1cc(NC(=O)NC2CCN(Cc3ccc(-c4nc5cc[nH]c(=O)c5cc4-c4ccccc4)cc3)CC2)ccc1Cl [compound 27]  8%
2. C=CC(=O)Nc1ccc2c(c1)n(C1CCN(Cc3ccc(-c4nc5cc[nH]c(=O)c5cc4-c4ccccc4)cc3)CC1)c(=O)n2C [24b]  3%
3. C=CC(=O)Nc1cccc(C(=O)NC2CCN(Cc3ccc(-c4nc5cc[nH]c(=O)c5cc4-c4ccccc4)cc3)CC2)c1 [30b]  2%

Molecular target: ERBB2 (HER2) (Homo sapiens, UniProt P04626)
Test: SelectScreen Z'LYTE kinase profiling
Assay type: biochemical
Conditions: ATP at apparent KM
Experimental: as §1, §2, §3, §4, §5, §6

Sequence of ERBB2 (HER2) (P04626 23-1255): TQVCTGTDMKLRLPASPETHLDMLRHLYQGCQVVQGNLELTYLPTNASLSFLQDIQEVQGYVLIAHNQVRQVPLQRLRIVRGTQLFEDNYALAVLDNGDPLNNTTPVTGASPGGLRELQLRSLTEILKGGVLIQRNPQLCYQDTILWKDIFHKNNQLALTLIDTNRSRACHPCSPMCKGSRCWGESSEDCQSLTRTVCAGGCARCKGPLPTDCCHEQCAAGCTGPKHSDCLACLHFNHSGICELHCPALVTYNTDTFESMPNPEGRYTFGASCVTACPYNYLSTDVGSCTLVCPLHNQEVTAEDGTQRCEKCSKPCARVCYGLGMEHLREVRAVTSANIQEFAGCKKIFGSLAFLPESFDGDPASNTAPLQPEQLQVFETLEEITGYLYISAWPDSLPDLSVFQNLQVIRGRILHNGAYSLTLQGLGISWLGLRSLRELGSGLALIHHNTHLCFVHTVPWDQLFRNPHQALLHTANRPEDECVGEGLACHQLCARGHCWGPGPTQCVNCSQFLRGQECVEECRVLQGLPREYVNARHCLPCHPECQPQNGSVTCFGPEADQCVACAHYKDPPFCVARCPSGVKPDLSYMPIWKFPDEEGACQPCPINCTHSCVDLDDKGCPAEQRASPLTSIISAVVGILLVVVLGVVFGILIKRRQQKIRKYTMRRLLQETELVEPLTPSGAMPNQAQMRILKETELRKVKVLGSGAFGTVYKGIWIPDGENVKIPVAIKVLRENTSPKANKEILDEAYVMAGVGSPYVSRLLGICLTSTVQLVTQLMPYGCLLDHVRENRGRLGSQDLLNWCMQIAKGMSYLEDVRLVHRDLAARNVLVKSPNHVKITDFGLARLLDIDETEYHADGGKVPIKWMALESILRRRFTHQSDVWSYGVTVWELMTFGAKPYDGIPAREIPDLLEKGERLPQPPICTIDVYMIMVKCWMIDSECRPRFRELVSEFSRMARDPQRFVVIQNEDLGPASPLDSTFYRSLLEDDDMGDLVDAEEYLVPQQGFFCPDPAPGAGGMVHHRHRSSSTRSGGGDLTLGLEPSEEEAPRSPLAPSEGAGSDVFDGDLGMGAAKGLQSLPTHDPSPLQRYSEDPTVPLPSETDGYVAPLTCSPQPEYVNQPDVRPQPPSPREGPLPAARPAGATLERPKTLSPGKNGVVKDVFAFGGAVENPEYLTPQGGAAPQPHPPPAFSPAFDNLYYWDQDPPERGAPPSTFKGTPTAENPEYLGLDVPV

In order of rising inhibition at 1 µM:
1. C=CC(=O)Nc1cccc(C(=O)NC2CCN(Cc3ccc(-c4nc5cc[nH]c(=O)c5cc4-c4ccccc4)cc3)CC2)c1 [30b]  -2%
2. C=CC(=O)Nc1ccc2c(c1)n(C1CCN(Cc3ccc(-c4nc5cc[nH]c(=O)c5cc4-c4ccccc4)cc3)CC1)c(=O)n2C [24b]  -1%
3. C=CC(=O)Nc1cc(NC(=O)NC2CCN(Cc3ccc(-c4nc5cc[nH]c(=O)c5cc4-c4ccccc4)cc3)CC2)ccc1Cl [compound 27]  0%

Molecular target: T1, NEK1 (Homo sapiens, UniProt Q96PY6)
T1 sequence (Q96PY6 1-1258): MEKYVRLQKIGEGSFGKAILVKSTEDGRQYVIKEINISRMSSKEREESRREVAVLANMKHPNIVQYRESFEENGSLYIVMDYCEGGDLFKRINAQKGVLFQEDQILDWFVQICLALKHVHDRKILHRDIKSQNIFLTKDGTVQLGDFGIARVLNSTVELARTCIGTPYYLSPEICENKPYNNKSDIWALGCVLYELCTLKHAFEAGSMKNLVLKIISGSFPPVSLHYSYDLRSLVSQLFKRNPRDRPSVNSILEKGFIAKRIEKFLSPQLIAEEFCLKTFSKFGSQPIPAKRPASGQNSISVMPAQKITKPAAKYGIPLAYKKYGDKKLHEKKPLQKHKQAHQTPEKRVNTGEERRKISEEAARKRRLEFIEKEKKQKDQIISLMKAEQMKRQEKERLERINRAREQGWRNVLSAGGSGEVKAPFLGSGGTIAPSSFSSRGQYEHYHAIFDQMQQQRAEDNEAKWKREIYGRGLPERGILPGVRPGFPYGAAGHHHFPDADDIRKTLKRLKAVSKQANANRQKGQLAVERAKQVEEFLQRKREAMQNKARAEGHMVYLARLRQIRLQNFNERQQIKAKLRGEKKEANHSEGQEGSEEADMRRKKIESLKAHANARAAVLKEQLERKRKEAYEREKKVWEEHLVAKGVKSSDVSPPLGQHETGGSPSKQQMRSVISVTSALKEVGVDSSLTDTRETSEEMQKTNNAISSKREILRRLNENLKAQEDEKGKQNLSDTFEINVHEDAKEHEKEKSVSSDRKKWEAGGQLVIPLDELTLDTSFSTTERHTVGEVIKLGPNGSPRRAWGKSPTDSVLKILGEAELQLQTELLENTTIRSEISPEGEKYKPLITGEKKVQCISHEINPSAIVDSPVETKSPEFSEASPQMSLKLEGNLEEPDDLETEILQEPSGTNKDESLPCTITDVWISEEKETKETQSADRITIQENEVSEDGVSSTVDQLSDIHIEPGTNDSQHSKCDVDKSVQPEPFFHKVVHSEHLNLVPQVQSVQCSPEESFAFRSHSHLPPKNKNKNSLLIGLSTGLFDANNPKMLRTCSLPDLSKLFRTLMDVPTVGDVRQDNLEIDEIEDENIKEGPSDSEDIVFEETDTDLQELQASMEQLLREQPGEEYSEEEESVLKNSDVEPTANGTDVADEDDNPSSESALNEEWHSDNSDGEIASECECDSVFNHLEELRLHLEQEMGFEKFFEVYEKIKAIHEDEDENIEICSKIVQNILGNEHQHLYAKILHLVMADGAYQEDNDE
Test: SelectScreen Z'LYTE kinase profiling
Assay type: biochemical
Conditions: ATP at apparent KM
Experimental: as §1, §2, §3, §4, §5, §6

In order of rising inhibition at 1 µM:
1. C=CC(=O)Nc1ccc2c(c1)n(C1CCN(Cc3ccc(-c4nc5cc[nH]c(=O)c5cc4-c4ccccc4)cc3)CC1)c(=O)n2C [24b]  -7%
2. C=CC(=O)Nc1cccc(C(=O)NC2CCN(Cc3ccc(-c4nc5cc[nH]c(=O)c5cc4-c4ccccc4)cc3)CC2)c1 [30b]  -2%
3. C=CC(=O)Nc1cc(NC(=O)NC2CCN(Cc3ccc(-c4nc5cc[nH]c(=O)c5cc4-c4ccccc4)cc3)CC2)ccc1Cl [compound 27]  -1%

Molecular target: T2, PRKCN (PKD3) (Homo sapiens, UniProt O94806)
T2 sequence (O94806 1-890): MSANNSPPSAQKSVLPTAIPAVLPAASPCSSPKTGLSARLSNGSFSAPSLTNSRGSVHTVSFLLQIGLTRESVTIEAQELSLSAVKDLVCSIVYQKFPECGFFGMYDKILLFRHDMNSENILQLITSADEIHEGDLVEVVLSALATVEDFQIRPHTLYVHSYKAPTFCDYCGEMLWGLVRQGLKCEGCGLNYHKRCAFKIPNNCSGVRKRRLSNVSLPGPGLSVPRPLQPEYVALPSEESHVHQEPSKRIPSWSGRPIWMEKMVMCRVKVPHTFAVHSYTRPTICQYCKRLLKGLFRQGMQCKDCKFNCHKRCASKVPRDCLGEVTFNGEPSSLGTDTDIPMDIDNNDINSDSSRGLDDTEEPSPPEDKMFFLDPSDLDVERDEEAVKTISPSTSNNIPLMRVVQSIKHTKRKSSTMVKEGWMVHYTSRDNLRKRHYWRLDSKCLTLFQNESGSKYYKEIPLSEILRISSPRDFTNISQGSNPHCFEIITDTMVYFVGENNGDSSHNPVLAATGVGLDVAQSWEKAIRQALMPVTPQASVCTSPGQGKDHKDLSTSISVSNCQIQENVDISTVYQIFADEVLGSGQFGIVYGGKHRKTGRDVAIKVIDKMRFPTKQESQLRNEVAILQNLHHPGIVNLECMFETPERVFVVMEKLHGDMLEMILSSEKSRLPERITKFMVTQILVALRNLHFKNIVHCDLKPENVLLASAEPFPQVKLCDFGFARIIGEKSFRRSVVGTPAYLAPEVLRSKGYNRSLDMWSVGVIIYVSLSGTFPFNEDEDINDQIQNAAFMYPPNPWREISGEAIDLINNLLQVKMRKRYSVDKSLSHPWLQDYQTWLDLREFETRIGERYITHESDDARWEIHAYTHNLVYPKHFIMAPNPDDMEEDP
Test: SelectScreen Z'LYTE kinase profiling
Assay type: biochemical
Conditions: ATP at apparent KM
Experimental: as §1, §2, §3, §4, §5, §6

In order of falling inhibition at 1 µM:
1. C=CC(=O)Nc1cc(NC(=O)NC2CCN(Cc3ccc(-c4nc5cc[nH]c(=O)c5cc4-c4ccccc4)cc3)CC2)ccc1Cl [compound 27]  16%
2. C=CC(=O)Nc1cccc(C(=O)NC2CCN(Cc3ccc(-c4nc5cc[nH]c(=O)c5cc4-c4ccccc4)cc3)CC2)c1 [30b]  14%
3. C=CC(=O)Nc1ccc2c(c1)n(C1CCN(Cc3ccc(-c4nc5cc[nH]c(=O)c5cc4-c4ccccc4)cc3)CC1)c(=O)n2C [24b]  10%

Molecular target: MET (cMet) (Homo sapiens, UniProt P08581)
Test: SelectScreen Z'LYTE kinase profiling
Assay type: biochemical
Conditions: ATP at apparent KM
Experimental: as §1, §2, §3, §4, §5, §6

In order of rising inhibition at 1 µM:
1. C=CC(=O)Nc1cccc(C(=O)NC2CCN(Cc3ccc(-c4nc5cc[nH]c(=O)c5cc4-c4ccccc4)cc3)CC2)c1 [30b]  0%
2. C=CC(=O)Nc1ccc2c(c1)n(C1CCN(Cc3ccc(-c4nc5cc[nH]c(=O)c5cc4-c4ccccc4)cc3)CC1)c(=O)n2C [24b]  1%
3. C=CC(=O)Nc1cc(NC(=O)NC2CCN(Cc3ccc(-c4nc5cc[nH]c(=O)c5cc4-c4ccccc4)cc3)CC2)ccc1Cl [compound 27]  4%

Molecular target: EPHA2 (Homo sapiens, UniProt P29317)
Test: SelectScreen Z'LYTE kinase profiling
Assay type: biochemical
Conditions: ATP at apparent KM
Experimental: as §1, §2, §3, §4, §5, §6

In order of falling inhibition at 1 µM:
1. C=CC(=O)Nc1cccc(C(=O)NC2CCN(Cc3ccc(-c4nc5cc[nH]c(=O)c5cc4-c4ccccc4)cc3)CC2)c1 [30b]  4%
2. C=CC(=O)Nc1cc(NC(=O)NC2CCN(Cc3ccc(-c4nc5cc[nH]c(=O)c5cc4-c4ccccc4)cc3)CC2)ccc1Cl [compound 27]  -3%
3. C=CC(=O)Nc1ccc2c(c1)n(C1CCN(Cc3ccc(-c4nc5cc[nH]c(=O)c5cc4-c4ccccc4)cc3)CC1)c(=O)n2C [24b]  -6%

Molecular target: AMPK A1/B1/G1 (Homo sapiens, UniProt Q13131)
Test: SelectScreen Z'LYTE kinase profiling
Assay type: biochemical
Conditions: ATP at apparent KM
Experimental: as §1, §2, §3, §4, §5, §6

In order of rising inhibition at 1 µM:
1. C=CC(=O)Nc1ccc2c(c1)n(C1CCN(Cc3ccc(-c4nc5cc[nH]c(=O)c5cc4-c4ccccc4)cc3)CC1)c(=O)n2C [24b]  17%
2. C=CC(=O)Nc1cccc(C(=O)NC2CCN(Cc3ccc(-c4nc5cc[nH]c(=O)c5cc4-c4ccccc4)cc3)CC2)c1 [30b]  46%
3. C=CC(=O)Nc1cc(NC(=O)NC2CCN(Cc3ccc(-c4nc5cc[nH]c(=O)c5cc4-c4ccccc4)cc3)CC2)ccc1Cl [compound 27]  76%

Molecular target: MARK3 (Homo sapiens, UniProt P27448)
Test: SelectScreen Z'LYTE kinase profiling
Assay type: biochemical
Conditions: ATP at apparent KM
Experimental: as §1, §2, §3, §4, §5, §6

Sequence of MARK3 (P27448 whole entry): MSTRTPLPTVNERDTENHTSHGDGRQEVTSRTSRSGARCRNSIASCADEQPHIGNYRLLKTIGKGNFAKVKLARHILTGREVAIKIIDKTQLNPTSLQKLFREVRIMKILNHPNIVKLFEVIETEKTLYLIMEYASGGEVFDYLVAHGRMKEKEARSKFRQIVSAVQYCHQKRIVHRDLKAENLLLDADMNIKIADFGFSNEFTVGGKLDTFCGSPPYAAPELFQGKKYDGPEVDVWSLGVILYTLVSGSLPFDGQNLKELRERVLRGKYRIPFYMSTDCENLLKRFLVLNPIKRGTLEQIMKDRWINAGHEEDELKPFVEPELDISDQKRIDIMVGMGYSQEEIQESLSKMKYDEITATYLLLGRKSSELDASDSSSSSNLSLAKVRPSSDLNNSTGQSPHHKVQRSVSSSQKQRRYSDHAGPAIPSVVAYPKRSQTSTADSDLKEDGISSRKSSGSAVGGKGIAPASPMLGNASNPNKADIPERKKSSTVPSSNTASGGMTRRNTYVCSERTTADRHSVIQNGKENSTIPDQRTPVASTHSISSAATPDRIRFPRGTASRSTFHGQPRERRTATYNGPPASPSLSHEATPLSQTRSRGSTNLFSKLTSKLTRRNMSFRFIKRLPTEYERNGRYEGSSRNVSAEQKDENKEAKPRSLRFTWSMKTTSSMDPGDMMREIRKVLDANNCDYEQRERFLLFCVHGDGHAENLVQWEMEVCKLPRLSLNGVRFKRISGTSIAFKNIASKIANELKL

In order of falling inhibition at 1 µM:
1. C=CC(=O)Nc1cccc(C(=O)NC2CCN(Cc3ccc(-c4nc5cc[nH]c(=O)c5cc4-c4ccccc4)cc3)CC2)c1 [30b]  3%
2. C=CC(=O)Nc1cc(NC(=O)NC2CCN(Cc3ccc(-c4nc5cc[nH]c(=O)c5cc4-c4ccccc4)cc3)CC2)ccc1Cl [compound 27]  3%
3. C=CC(=O)Nc1ccc2c(c1)n(C1CCN(Cc3ccc(-c4nc5cc[nH]c(=O)c5cc4-c4ccccc4)cc3)CC1)c(=O)n2C [24b]  -1%
